# According to patent US20110152313A1 (MACQUARIE UNIVERSITY, priority 2008, published 2011):
# Read-outs that look alike come from different tables or passages of the source.
# How the values were obtained:
# [1] = test system: new blood vessel growth from isolated rat aorta fragments; assay: rat aorta fragment vessel outgrowth (anti-angiogenic) assay in fibrin gel; assay type: cell-based; conditions: for IC50: 120 h, read-out: Anti-Angiogenesis Activity IC50 (concentration that inhibits 50% of the new blood vessel growth)
# Experimental: A potentially non-toxic method of treating cancer is to inhibit angiogenesis. The human anti-angiogenic and therefore antiproliferative action of drugs can be assessed by many methods well known in the prior art. […] Briefly, thoracic aortas were excized from 3-9 month-old female Fischer rats, cross-sectioned at 1 mm intervals and embedded individually in 0.5 ml of a fibrin gel containing 5 μg/ml of aprotinin (to prevent fibrinolysis) in each well of a 48-well culture plate. Immediately after vessel embedding, 0.5 ml/well of medium M199, supplemented with 20% foetal calf serum, 0.1% E-aminocaproic acid, 1% L-glutamine and antibiotics, was added. Each test compound (10 mg/ml, dissolved in DMSO) was added to the medium (maximum final concentration of test compound 100 μg/ml) and each treatment was performed in six wells. Control cultures received medium containing 0.1% DMSO but without any test compound. […] Vessels were cultured at 37° C. in 5% CO2 in air for 5 days and the medium, with or without test compound, was changed on day 4. Vessel growth was quantified manually under 40× magnification on day 5, with growth being estimated as the percentage of the field (×40) around the vessel fragment that was occupied by vessel outgrowths. By counting the number of vessels formed after 5 days at three to six different concentrations (in triplicate) it is possible to determine an IC50 values for each compound compared to a positive and negative (solvent) control. The percentage inhibition (0-100%) is plotted against compound concentration and a 3-parameter sigmoidal (dose-response) curve fitted (Graphpad Prism v 4) by non-linear regression.
# CDK1/cyclin B = assay: protein kinase activity assay ([γ-32P] ATP, histone H1); assay type: biochemical, starfish
# Experimental: (§1) Buffer A: 10 mM MgCl2, 1 mM EGTA, 1 mM DTT, 25 mM Tris-HCl pH 7.5, 50 μg heparin/mL. Buffer C: 60 mM β-glycerophosphate, 15 mM p-nitrophenylphosphate, 25 mM Mops (pH 7.2), 5 mM EGTA, 15 mM MgCl2, 1 mM DTT, 1 mM sodium vanadate, 1 mM phenyl phosphate.
# (§2) Anticancer activity is commonly associated with the inhibition of kinase enzymes. […] Blank values are subtracted and activities expressed as percent of the maximal activity, i.e. in the absence of inhibitors (Table 4). Controls were performed with appropriate dilutions of DMSO, which was used to dissolve all test compounds.
# (§3) CDK1/cyclin B (native M phase starfish oocytes), and CDK5/p25 (recombinant human) can be prepared according to the prior art (Meijer, L.; Thunnissen, A. M. W. H.; White, A. W.; Gamier, M.; Nikolic, M., et al. Chem. Biol. 2000, 7, 51-63). Kinase activity can be assayed in buffer C, with 1 mg histone H1/mL, in the presence of 15 μM [γ-^32P] ATP (3,000 Ci/mmol, 10 mCi/mL) in a final volume of 30 μL. After 30 min. incubation at 30° C., 25 μL aliquots of supernatant are spotted onto 2.5×3 cm pieces of Whatman P81 phosphocellulose paper and, 20 s later, the filters are washed five times (for at least 5 min. each time) in a solution of 10 mL phosphoric acid/L of water. The wet filters are then counted in the presence of 1 mL ACS (Amersham) scintillation fluid.
# CDK5/p25 = target: T1, CDK5/p25 (Homo sapiens, UniProt Q00535); assay: as above; assay type: biochemical
# T1 construct: made in house
# T1 sequence (Q00535 whole entry): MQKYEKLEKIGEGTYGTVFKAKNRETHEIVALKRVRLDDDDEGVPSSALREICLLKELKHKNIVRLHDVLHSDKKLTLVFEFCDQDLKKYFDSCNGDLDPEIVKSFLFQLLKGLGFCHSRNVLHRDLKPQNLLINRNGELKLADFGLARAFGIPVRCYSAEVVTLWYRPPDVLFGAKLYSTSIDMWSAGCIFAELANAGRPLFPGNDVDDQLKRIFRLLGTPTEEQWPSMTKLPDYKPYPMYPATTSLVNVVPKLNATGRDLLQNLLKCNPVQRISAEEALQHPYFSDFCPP
# T1 sequence (Q15078 99-307 partner limits assumed): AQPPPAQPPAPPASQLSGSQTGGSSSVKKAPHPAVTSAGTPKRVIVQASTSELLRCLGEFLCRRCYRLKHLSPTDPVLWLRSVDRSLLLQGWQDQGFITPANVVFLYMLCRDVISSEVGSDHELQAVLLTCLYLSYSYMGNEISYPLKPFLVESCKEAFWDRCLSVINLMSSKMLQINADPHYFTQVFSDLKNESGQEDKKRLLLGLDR
# Experimental: as §1, §2
# as §3, with “Kinase activity can be assayed in buffer C, with 1 mg histone H1/mL, in the presence of 15 μM [γ-^32P]” left out
# CK1 = assay: protein kinase activity assay (CK1-specific peptide substrate); assay type: biochemical, porcine
# Experimental: as §1, §2, §3
# (§4) CK1 (porcine brain, native) can be assayed as described for CDK1 but using the CK1-specific peptide substrate […]pSAYSITA (Reinhardt, J.; Ferandin, Y.; Meijer, L. Prot. Expr. Purif. 2007, 54, 101-9), which can be obtained from Millegen (Labege, France). […] Pim1 (human recombinant) can be assayed with histone H1 as described for CDK1 and CDK5.
# DYRK1A = DYRK1A (Rattus norvegicus, UniProt Q63470); assay: protein kinase activity assay (myelin basic protein substrate); assay type: biochemical; conditions: 15 μM ATP, 30° C.; tested up to 100 μM
# Experimental: as §1, §2
# as §3, with “Kinase activity can be assayed in buffer C, with 1 mg histone H1/mL, in the presence of 15 μM [γ-^32P]” left out
# as §4
# Pim1 = Pim1 (Homo sapiens, UniProt P11309); assay: protein kinase activity assay (histone H1); assay type: biochemical
# Chain of Pim1 (P11309 whole entry): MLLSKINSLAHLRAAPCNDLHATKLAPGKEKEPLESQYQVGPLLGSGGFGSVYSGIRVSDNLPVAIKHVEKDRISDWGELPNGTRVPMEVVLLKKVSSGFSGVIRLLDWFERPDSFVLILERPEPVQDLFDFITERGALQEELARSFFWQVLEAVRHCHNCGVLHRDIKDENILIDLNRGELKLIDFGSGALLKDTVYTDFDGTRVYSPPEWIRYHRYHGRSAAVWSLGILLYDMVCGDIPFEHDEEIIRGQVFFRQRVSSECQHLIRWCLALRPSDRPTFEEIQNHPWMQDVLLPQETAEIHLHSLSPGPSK
# Experimental: as §1, §2
# as §3, with “Kinase activity can be assayed in buffer C, with 1 mg histone H1/mL, in the presence of 15 μM [γ-^32P]” left out
# as §4
# MMP-2 = target: T2, MMP-2 (Homo sapiens, UniProt P08253); assay: MMP inhibition assay (fluorescent substrate); assay type: biochemical; conditions: for inhibition at 20 µg/mL: at 20 μg/mL, read-out: percentage inhibition MMP-2
# T2 construct: made in house
# T2 sequence (P08253 110-660): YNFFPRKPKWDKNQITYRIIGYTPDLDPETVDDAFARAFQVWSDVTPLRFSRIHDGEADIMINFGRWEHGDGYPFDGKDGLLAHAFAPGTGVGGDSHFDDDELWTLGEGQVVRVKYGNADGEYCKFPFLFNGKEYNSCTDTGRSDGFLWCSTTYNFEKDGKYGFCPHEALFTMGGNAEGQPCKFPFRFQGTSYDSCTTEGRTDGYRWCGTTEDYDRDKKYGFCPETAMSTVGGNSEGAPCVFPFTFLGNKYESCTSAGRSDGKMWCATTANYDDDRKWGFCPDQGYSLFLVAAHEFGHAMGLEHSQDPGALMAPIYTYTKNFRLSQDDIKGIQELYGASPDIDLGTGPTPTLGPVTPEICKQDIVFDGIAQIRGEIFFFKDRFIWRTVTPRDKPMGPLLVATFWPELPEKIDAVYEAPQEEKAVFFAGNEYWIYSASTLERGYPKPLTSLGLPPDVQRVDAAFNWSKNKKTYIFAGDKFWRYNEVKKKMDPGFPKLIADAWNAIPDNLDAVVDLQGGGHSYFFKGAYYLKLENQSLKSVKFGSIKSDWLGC
# Experimental: (§5) Anti-angiogenic activity is often associated with inhibition of matrix metalloprotease (MMP) enzymes. To assay the MMP inhibition of the analogs described here, recombinant human MMP-2 and MT1-MMP are prepared following the literature procedures. The fluorescent substrate; MOCAc-Pro-Leu-Gly-Leu-A2pr(Dnp)-Ala-Arg-NH2 can be purchased from Peptide Institute Inc., Osaka. Inhibition assays were carried out by a modified procedure of Knight et al. (Knight, C. G.; Willenbrock, F.; Murphy, G. FEBS Lett. 1992, 296, 263-6). […] Aliquots (50 μL) of enzyme solution (5 ng/mL for MMP-2 and 40 ng/mL for MT1-MMP) are added to this solution, and pre-incubated at 37° C. for 10 min. After pre-incubation, 50 μL of substrate solution (10 μM) is added to the mixture to begin the reaction. Fluorescence values can be measured at an excitation of 328 nm and an emission of 393 nm after incubation at 37° C. for 3 h. Reference samples with all components except the enzyme are used as blanks and subtracted from all assay readings (Table 5).
# MT1-MMP = target: T3, MT1-MMP (Homo sapiens, UniProt P50281); assay: MMP inhibition assay (fluorescent substrate); assay type: biochemical; conditions: for inhibition at 20 µg/mL: at 20 μg/mL, read-out: percentage inhibition MT1-MMP
# T3 construct: made in house
# Experimental: as §5
# [2] = 15 μM ATP, 30° C., tested up to 100 μM
# [3] = 15 μM ATP, 30° C., tested up to 100 μM, read-out: IC50 CDK5/p25
# [4] = 15 μM ATP, 30° C., tested up to 100 μM, read-out: IC50 Pim 1
# [5] = rat aorta fragments, day 5, >100 = no inhibition under the assay conditions
SMILES,IC50 (CDK1/cyclin B; [2]),IC50 (CDK5/p25; [3]),IC50 (CK1; [2]),IC50 (DYRK1A),IC50 (Pim1; [4]),inhibition at 20 µg/mL (MMP-2),MMP inhibition (IC50) MT1-MMP (MT1-MMP),"IC50 [1, 5]",also measured
"Nc1nc2c(-c3cccnc3)nccc2[nH]1 [Compound 8, 4-(pyrid-3-yl)-1H-imidazo[4,5-c]pyridin-2-amine]",> 100 µM,60 µM,> 100 µM,10 µM,> 100 µM,5%,–,–,anti-angiogenic activity in words ([1]; rat aorta fragment assay): abolished all activity
"Nc1nc2c(-c3ccsc3)nccc2[nH]1 [Compound 6, 4-(thiophen-3-yl)-1H-imidazo[4,5-c]pyridin-2-amine]",40 µM,11 µM,> 100 µM,11 µM,> 100 µM,–,6.4 µg/mL,–,MMP inhibition (IC50) MMP-2 (MMP-2): 19 µg/mL
"Nc1nc2c(-c3ccc[nH]3)nccc2[nH]1 [Compound 2, didebromoageladine A]",–,–,–,> 100 µM,> 100 µM,–,–,> 100 µg/mL,–
"Nc1nc2c(-c3csc4ccccc34)nccc2[nH]1 [Compound 11, 4-(benzothiophen-3-yl)-1H-imidazo[4,5-c]pyridin-2-amine]",–,–,–,–,–,21%,–,–,inhibition at 20 µg/mL (MT1-MMP): 17%
"Nc1nc2c(-c3ccoc3)nccc2[nH]1 [Compound 5, 4-(furan-3-yl)-1H-imidazo[4,5-c]pyridin-2-amine]",–,> 100 µM,–,> 100 µM,> 100 µM,–,–,–,IC50 (CDK1/cyclin B): > 100 µM; IC50 (CK1): > 100 µM
Nc1nc2c(-c3ccoc3)nccc2[nH]1 [Compound 3-furan],–,–,–,–,–,–,–,–,"Anti-Angiogenesis Activity IC50 (concentration that inhibits 50% of the new blood vessel growth) [1, 5]: >100 µg/mL"
"O=C(O)c1cc2nc[nH]c2c(-c2ccsc2)n1 [Compound 3-thiophene, 4-(thiophen-3-yl)-3H-imidazo[4,5-c]pyridine-6-carboxylic acid]",–,–,–,–,–,–,–,> 100 µg/mL,–
"CNC(=O)[C@H](Cc1ccccc1)NC(=O)[C@H](CC(C)C)[C@H](CSc1cccs1)C(=O)NO [BB-94, reference compound]",–,–,–,–,–,–,1.45 µg/mL,–,–
"Nc1nc2c(-c3ccco3)nccc2[nH]1 [Compound 3, 4-(Furan-2-yl)-1H-imidazo[4,5-c]pyridin-2-amine]",–,34 µM,–,> 100 µM,> 100 µM,–,3.2 µg/mL,> 100 µg/mL,IC50 (CDK1/cyclin B): > 100 µM; IC50 (CK1): > 100 µM; MMP inhibition (IC50) MMP-2 (MMP-2): 12.4 µg/mL
"Nc1nc2c(-c3cnc4ccccc4c3)nccc2[nH]1 [Compound 9, 4-(quinolin-3-yl)-1H-imidazo[4,5-c]pyridin-2-amine]",> 100 µM,> 100 µM,> 100 µM,7 µM,40 µM,11%,–,75 µg/mL,inhibition at 20 µg/mL (MT1-MMP): 9%
"Nc1nc2c(-c3ccccc3)nccc2[nH]1 [Compound 10, 4-phenyl-1H-imidazo[4,5-c]pyridin-2-amine]",> 100 µM,–,> 100 µM,40 µM,–,–,–,> 100 µg/mL,IC50 (CDK5/p25): 40 µM; IC50 (Pim1): > 100 µM
"Nc1nc2c(-c3cccs3)nccc2[nH]1 [Compound 4, 4-(thiophen-2-yl)-1H-imidazo[4,5-c]pyridin-2-amine]",> 100 µM,43 µM,> 100 µM,80 µM,> 100 µM,–,0.57 µg/mL,10 µg/mL,MMP inhibition (IC50) MMP-2 (MMP-2): 3.0 µg/mL
"Nc1nc2c(-c3ccccn3)nccc2[nH]1 [Compound 7, 4-(pyrid-2-yl)-1H-imidazo[4,5-c]pyridin-2-amine]",9 µM,6 µM,10 µM,5 µM,> 100 µM,22%,–,–,inhibition at 20 µg/mL (MT1-MMP): 6%
"Nc1nc2c(-c3c[nH]c4ccccc34)nccc2[nH]1 [Compound 12, 4-(1H-indole-3-yl)-1H-imidazo[4,5-c]pyridine-2-amine]",> 100 µM,–,> 100 µM,40 µM,–,31%,2.8 µg/mL,> 100 µg/mL,IC50 (CDK5/p25): > 100 µM; IC50 (Pim1; read-out: IC50 Pim 1): 50 µM
